Data taken from ChEMBL document CHEMBL1201862, “PubChem BioAssay data set” (2004).
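Compound exposure: 48 hours, 5 concentrations, 96-well plates. GI50: concentration for 50% inhibition of growth.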 Active and inactive are the calls of the source. Cut-off read from the data, not from the text of the source: active = GI50 up to about 1.1 µM and inactive = higher.

Tests used:
Test in all cases: NCI tumour cell line growth inhibition, 48 h
[1] = test system: A549
[2] = test system: BT-549
[3] = test system: CAKI-1
[4] = test system: COLO 205
[5] = test system: DU-145
[6] = test system: HOP-62
[7] = test system: KM12
[8] = test system: LOX IMVI
[9] = test system: M14
[10] = test system: MDA-MB-231
[11] = test system: Malme-3M
[12] = test system: NCI-H460
[13] = test system: OVCAR-4
[14] = test system: SF-268
[15] = test system: SK-MEL-5
[16] = test system: SK-OV-3
[17] = test system: SN12C
[18] = test system: SR
[19] = test system: U-251
[20] = test system: UACC-62

Compound | GI50 [1] | GI50 [2] | GI50 [3] | GI50 [4] | GI50 [5] | GI50 [6] | GI50 [7] | GI50 [8] | GI50 [9] | GI50 [10] | GI50 [11] | GI50 [12] | GI50 [13] | GI50 [14] | GI50 [15] | GI50 [16] | GI50 [17] | GI50 [18] | GI50 [19] | GI50 [20]
CCOC(=O)NN(C(=O)OCC)C(C(=O)c1ccccc1)N(NC(=O)OCC)C(=O)OCC | > 100 µM (inactive) | > 100 µM (inactive) | > 100 µM (inactive) | > 100 µM (inactive) | > 100 µM (inactive) | > 100 µM (inactive) | > 100 µM (inactive) | > 100 µM (inactive) | > 100 µM (inactive) | > 100 µM (inactive) | > 100 µM (inactive) | > 100 µM (inactive) | > 100 µM (inactive) | > 100 µM (inactive) | > 100 µM (inactive) | > 100 µM (inactive) | > 100 µM (inactive) | > 100 µM (inactive) | > 100 µM (inactive) | > 100 µM (inactive)
C/C(=N\NC(N)=S)c1nc2cccnc2[nH]1 | 57.5 µM (inactive) | 24.9 µM (inactive) | 33.5 µM (inactive) | 38.8 µM (inactive) | 63.7 µM (inactive) | 67.3 µM (inactive) | 67.5 µM (inactive) | 73.5 µM (inactive) | 63.1 µM (inactive) | > 70.1 µM (inactive) | > 92.9 µM (inactive) | 45.7 µM (inactive) | 25.6 µM (inactive) | 57.7 µM (inactive) | 47.3 µM (inactive) | 30.2 µM (inactive) | > 100 µM (inactive) | 45.5 µM (inactive) | 40.8 µM (inactive) | 47.2 µM (inactive)
O=[N+]([O-])c1ccc(-n2nc3ccc4c(no[n+]4[O-])c3[n+]2[O-])c([N+](=O)[O-])c1 | 16 µM (inactive) | 2.67 µM (inactive) | 2.42 µM (inactive) | 1.54 µM (inactive) | 5.56 µM (inactive) | 3.77 µM (inactive) | 1.79 µM (inactive) | 1.77 µM (inactive) | 1.59 µM (inactive) | 2.27 µM (inactive) | 2.45 µM (inactive) | 5.55 µM (inactive) | 1.68 µM (inactive) | 5.05 µM (inactive) | 2.79 µM (inactive) | 9.51 µM (inactive) | 2.56 µM (inactive) | 1.91 µM (inactive) | 2.77 µM (inactive) | 2.73 µM (inactive)
O=C1Nc2ccccc2/C1=N/NC(=S)Nc1ccc([N+](=O)[O-])cc1 | 6.9 µM (inactive) | 14.4 µM (inactive) | 6.07 µM (inactive) | 10.3 µM (inactive) | 14.8 µM (inactive) | 4.62 µM (inactive) | 10.8 µM (inactive) | 2.94 µM (inactive) | 6.62 µM (inactive) | 0.208 µM (active) | 5.28 µM (inactive) | 2.51 µM (inactive) | 18.6 µM (inactive) | 13 µM (inactive) | 10.4 µM (inactive) | 4.76 µM (inactive) | 16.9 µM (inactive) | 4.72 µM (inactive) | 5.85 µM (inactive) | 8.47 µM (inactive)
COc1ccc(C2C=C(c3ccc4c(c3)OCO4)Oc3c2c(=O)oc2ccccc32)cc1OC (stereo not given) | 1.05 µM (active) | 3.18 µM (inactive) | 0.425 µM (active) | 0.361 µM (active) | 0.417 µM (active) | > 100 µM (inactive) | 0.443 µM (active) | 0.593 µM (active) | 0.502 µM (active) | 1.36 µM (inactive) | 0.366 µM (active) | 0.406 µM (active) | > 100 µM (inactive) | 0.713 µM (active) | 0.324 µM (active) | 0.372 µM (active) | 1.36 µM (inactive) | 0.236 µM (active) | 0.413 µM (active) | 0.294 µM (active)
O=c1oc2c(Cl)cc(Cl)cc2cc1-c1cn2c(n1)sc1ccccc12 | > 100 µM (inactive) | 28.6 µM (inactive) | 71.6 µM (inactive) | 90.4 µM (inactive) | 74 µM (inactive) | 53.5 µM (inactive) | > 100 µM (inactive) | 60.3 µM (inactive) | 78.7 µM (inactive) | 28.4 µM (inactive) | > 100 µM (inactive) | > 100 µM (inactive) | 47.6 µM (inactive) | 65.8 µM (inactive) | 39.2 µM (inactive) | > 100 µM (inactive) | 67.8 µM (inactive) | 21.1 µM (inactive) | > 100 µM (inactive) | 35.9 µM (inactive)
CS(=O)(=O)OCCCCOS(C)(=O)=O [BUSULFAN] | 208 µM (inactive) | > 1000 µM (inactive) | 161 µM (inactive) | 222 µM (inactive) | 220 µM (inactive) | 187 µM (inactive) | > 250 µM (inactive) | 221 µM (inactive) | 236 µM (inactive) | > 1000 µM (inactive) | 242 µM (inactive) | 95.9 µM (inactive) | 214 µM (inactive) | 179 µM (inactive) | 232 µM (inactive) | > 237 µM (inactive) | 233 µM (inactive) | 87.9 µM (inactive) | 234 µM (inactive) | 187 µM (inactive)
